Assay results published in publication PMC4877593, “Design and Synthesis of Potent in Vitro and in Vivo Anticancer Agents Based on 1-(3′,4′,5′-Trimethoxyphenyl)-2-Aryl-1H-Imidazole” (Scientific Reports, 2016).
Like-named read-outs stand apart in the source and are kept apart here.

Columns and labels:
[1] = system: A549; experiment: In vitro antiproliferative activity (MTT), A549; type: cell-based; conditions: Homo sapiens, tumor cell proliferation, 72 h, mean ± SE
Protocol: (§1) Human T-cell leukemia (CCRF-CEM and Jurkat) and human B-cell leukemia (SEM) cells were grown in RPMI-1640 medium (Gibco, Milano, Italy). Breast adenocarcinoma (MCF7), human cervix carcinoma (HeLa), and human colon adenocarcinoma (HT-29) cells were grown in DMEM medium (Gibco, Milano, Italy), all supplemented with 115 units/mL penicillin G (Gibco, Milano, Italy), 115 μg/mL streptomycin (Invitrogen, Milano, Italy), and 10% fetal bovine serum (Invitrogen, Milano, Italy). Stock solutions (10 mM) of the different compounds were obtained by dissolving them in dimethyl sulfoxide (DMSO). Individual wells of a 96-well tissue culture microtiter plate were inoculated with 100 μL of complete medium containing 8 × 10^3 cells. The plates were incubated at 37 °C in a humidified 5% CO2 incubator for 18 h prior to the experiments. After medium removal, 100 μL of fresh medium containing the test compound at different concentrations was added to each well in triplicate and incubated at 37 °C for 72 h. The percentage of DMSO in the medium never exceeded 0.25%. This was also the maximum DMSO concentration in all cell-based assays described below. […] Different concentrations of the test compounds were added, and viability was determined 72 h later by the MTT test. For cytotoxicity evaluations in resting PBL cultures, non-adherent cells were resuspended (5 × 10^5 cells/mL) and treated for 72 h with the test compounds, as described above.

[2] = system: RS4;11; experiment: In vitro antiproliferative activity (MTT), RS4;11; type: cell-based; conditions: Homo sapiens, tumor cell proliferation, 72 h, mean ± SE
[3] = system: HeLa; experiment: Annexin-V/PI apoptosis assay, HeLa; type: cell-based, human; conditions: 24 h, lowest concentration used (50 nM)
Protocol: To evaluate the induction of apoptosis by compound 4o in two cell lines (HeLa and Jurkat), we used an annexin-V/PI assay. Dual staining for annexin-V and with PI permits discrimination between live cells (annexin-V^−/PI^−), early apoptotic cells (annexin-V^+/PI^−), late apoptotic cells (annexin-V^+/PI^+) and necrotic cells (annexin-V^−/PI^+).
Cell death was determined by flow cytometry of cells double stained with annexin V/FITC and PI. The Coulter Cytomics FC500 (Beckman Coulter) was used to measure the surface exposure of phosphatidyl serine on apoptotic cells according to the manufacturer’s instructions (Annexin-V Fluos, Roche Diagnostics).

[4] = system: PBL not stimulated with PHA; experiment: Cytotoxicity in resting peripheral blood lymphocytes; type: cell-based; conditions: Homo sapiens, Lymphocyte, PBL from healthy donors, 72 h, MTT, read-out: IC50 PBLresting
Protocol: (§2) This value was almost 600 times higher than that observed against the Jurkat lymphoblastic cell line.
as §1, with “For cytotoxicity evaluations in resting PBL cultures, non-adherent cells were resuspended (5 × 10^5 cells/mL) and treated for 72 h with the test compounds, as described above.” left out

[5] = system: HeLa cells; experiment: Cell cycle distribution by flow cytometry (PI), HeLa; type: cell-based, human
Protocol: The effects of a 24 h treatment with different concentrations of 4o on cell cycle progression in Jurkat, and HeLa cells were determined by flow cytometry, following propidium iodide (PI) staining of the cells (Fig. 4, Panels A,B). […] In the HeLa cells, the G2/M block was accompanied by a significant reduction of both G1 and S phase cells. In order to determine whether 4o was able to block cells at the mitotic phase (M), cells were stained with an immunofluorescent antibody to p-histone H3, a well known mitotic marker, as well as PI, and analyzed by flow cytometry. As shown in Fig. 4 (Panel C), in which representative histograms are presented, Hela cells arrested in M phase by treatment with 4o are readily distinguished from G2 cells by the higher level of p-histone H3. In particular, treatment with 4o induced an increase in the percentage of mitotic cells from the 2% observed in untreated cells to about 30% with both 50 and 100 nM 4o at 24 h (Fig. 4, Panel D).
5 × 10^5 HeLa or Jurkat cells were treated with different concentrations of the test compounds for 24 h. After the incubation period, the cells were collected, centrifuged, and fixed with ice-cold ethanol (70%). […] Samples were analyzed on a Cytomic FC500 flow cytometer (Beckman Coulter). DNA histograms were analyzed using MultiCycle for Windows (Phoenix Flow Systems).

[6] = system: panel of seven human tumor cell lines; experiment: Antiproliferative activity across the panel of seven human tumor cell lines; type: cell-based
Protocol: as §1

[7] = system: HeLa cells; experiment: Western blot analysis of cell cycle, spindle checkpoint and apoptosis proteins; type: cell-based, human
Protocol: HeLa cells were incubated in the presence of 4o and, after different times, were collected, centrifuged, and washed two times with ice cold phosphate buffered saline (PBS). The pellet was then resuspended in lysis buffer. After the cells were lysed on ice for 30 min, lysates were centrifuged at 15000 × g at 4 °C for 10 min. The protein concentration in the supernatant was determined using the BCA protein assay reagents (Pierce, Italy). Equal amounts of protein (10 μg) were resolved using sodium dodecyl sulfate-polyacrylamide gel electrophoresis (SDS-PAGE) (Criterion Precast, BioRad, Italy) and transferred to a PVDF Hybond-P membrane (GE Healthcare). Membranes were blocked with a bovine serum albumin solution (5% in Tween PBS 1X), the membranes being gently rotated overnight at 4 °C. Membranes were then incubated with primary antibodies against Bcl-2, PARP, cdc25c, CDC20, ROCK1, MAD2, p-H2AX^Ser139, cyclin B, p-cdc2^Tyr15, […] (all from Cell Signaling), caspase-3 (Alexis), or β-actin (Sigma-Aldrich) for 2 h at room temperature. Membranes were next incubated with peroxidase labeled secondary antibodies for 60 min. All membranes were visualized using ECL Select (GE Healthcare), and images were acquired using an Uvitec-Alliance imaging system (Uvitec, Cambridge, UK). To ensure equal protein loading, each membrane was stripped and reprobed with anti-β-actin antibody.

[8] = system: PBL stimulated with PHA; experiment: Cytotoxicity in PHA-stimulated peripheral blood lymphocytes; type: cell-based, human; conditions: 72 h, PBL from healthy donors, MTT, read-out: IC50 PBLPHA
Protocol: as §2
as §1, with “For cytotoxicity evaluations in resting PBL cultures, non-adherent cells were resuspended (5 × 10^5 cells/mL) and treated for 72 h with the test compounds, as described above.” left out

[9] = HeLa, 24 h, all concentrations examined

CCOc1ccc(-c2nccn2-c2cc(OC)c(OC)c(OC)c2)cc1Cl [Compound 4o, 2-(3′-Chloro-4′-ethoxyphenyl)-1-(3′,4′,5′-trimethoxyphenyl)-1H-imidazole]
IC50 [1]: 0.57 ± 0.17 nM
IC50 [2]: 1.2 ± 0.7 nM
annexin-V positive cells [3]: significant accumulation of annexin-V positive cells
IC50 [4]: > 10 µM
lowest concentration with a rise in G2/M cells ([5]; 24 h treatment): 25 nM
cells arrested in G2/M ([5]; highest concentration, 24 h): more than 80%
IC50 ([6]; average over the seven cell lines, read-out: average IC50 values): 1.3 nM
IC50 ([6]; range over seven cancer cell lines, read-out: IC50 values in the seven cell lines (range)): 0.4 to 3.8 nM
phosphorylation of γH2A.X (Ser139) ([7]; HeLa): remarkable increase
cyclin B1 expression ([7]; HeLa, 50 nM, 24 h): marked increase
MAD2 expression ([7]; HeLa, 24 and 48 h): substantially decreased
expression of phosphorylated cdc2 ([7]; HeLa, 24 and 48 h): strongly decreased
PARP ([7]; HeLa, 50, 100 and 250 nM, 24 and 48 h): cleavage of PARP
caspase-3 ([7]; HeLa, 50, 100 and 250 nM, in particular after 48 h): activation of the effector caspase-3
level of cdc20 ([7]; HeLa, 24 h): remained unaffected
total cdc25c expression ([7]; HeLa, 24 h): strongly reduced
Bcl-2 expression [7, 9]: dramatic decrease
Mcl-1 expression [7, 9]: dramatic decrease
phosphorylation of PLK1 ([7]; HeLa, 24 h, effect disappeared at 48 h): marked increase
ROCK1 cleavage ([7]; HeLa, 48 h): cleaved bands of ROCK1 appeared
IC50 ([8]; Homo sapiens, Lymphocyte): ~500 nM
IC50 [8]: 520 ± 40 nM
